# Data from US9956187B2 (priority 2014, dated 2018).
# Entries after “also recorded” stand apart in the source; their conditions may differ.
# How the values were obtained:
# [1] = target: T1, norepinephrine transporter (NET) (Homo sapiens, UniProt P23975); assay: Secondary radioligand binding assay (affinity); details: FIG. 10A
# T1 construct: expressed in transfected cells
# Description: The secondary binding assay was performed only when the inhibition in the primary screen was over 50%. A secondary binding assay was utilized to determine the binding affinity for the identified receptor.
# 50 μL of a crude membrane fraction of cells expressing the respective receptors were applied to each well. Reaction incubation, harvesting and radioactivity measurement from the primary assay were repeated. Affinity is expressed as pKi (−log Ki).
# [2] = target: T2, D5 (Homo sapiens, UniProt P21918); assay: Primary radioligand binding screen; details: primary binding, D5; dezocine 10 μM
# T2 construct: expressed in transfected cells
# Description: (§1) Evidence for interaction was based on the inhibition of the reference ligand-binding signal. […] Briefly, 50 μL aliquots of radioactive ligand (5 nM) were added to wells of a 96-well plate, which contained 25 μL of the reference or test ligands. We employed transfected cell lines expressing mainly human (unless otherwise specified) recombinant receptors, monoamine transporters, or ion channels for crude membrane preparation. Detailed information about our membrane preparation is well known in the art and can be obtained from publicly available protocol online. Crude membrane fractions containing the receptors were resuspended in standard binding buffer and 50 μL aliquots added to each well. The reactions were incubated at room temperature for 1.5 hours to allow for radioligand binding equilibration. Bound radioactivity was harvested by rapid filtration through a 0.3% polyethyleneimine-treated, 96-well filter mats using a 96-well Filtermate harvester. The dried filters were treated with melted scintillant and a Microbeta scintillation counter was utilized to measure the radioactivity retained on the filter.
# [3] = target: T3, Alpha1B (Homo sapiens, UniProt P35368); assay: Primary radioligand binding screen; details: primary binding, Alpha1B; dezocine 10 μM
# T3 construct: expressed in transfected cells
# Description: as §1
# [4] = target: T4, 5-HT1A (Homo sapiens, UniProt P08908); assay: Primary radioligand binding screen; details: primary binding, 5-HT1A; dezocine 10 μM
# T4 construct: expressed in transfected cells
# Description: as §1
# [5] = target: T5, NET (Homo sapiens, UniProt P23975); assay: Primary radioligand binding screen; details: primary binding, NET; dezocine 10 μM
# T5 construct: expressed in transfected cells
# Description: as §1
# [6] = target: T6, M5 (Homo sapiens, UniProt P08912); assay: Primary radioligand binding screen; details: primary binding, M5; dezocine 10 μM
# T6 construct: expressed in transfected cells
# Description: as §1
# [7] = target: T7, 5-HT1B (Homo sapiens, UniProt P28222); assay: Primary radioligand binding screen; details: primary binding, 5-HT1B; dezocine 10 μM
# T7 construct: expressed in transfected cells
# Description: as §1
# [8] = target: T8, D4 (Homo sapiens, UniProt P21917); assay: Primary radioligand binding screen; details: primary binding, D4; dezocine 10 μM
# T8 construct: expressed in transfected cells
# Description: as §1
# [9] = target: T9, Alpha2A (Homo sapiens, UniProt P08913); assay: Primary radioligand binding screen; details: primary binding, Alpha2A; dezocine 10 μM
# T9 construct: expressed in transfected cells
# Description: as §1
# [10] = target: T10, 5-HT2B (Homo sapiens, UniProt P41595); assay: Primary radioligand binding screen; details: primary binding, 5-HT2B; dezocine 10 μM
# T10 construct: expressed in transfected cells
# Description: as §1
# [11] = target: T11, 5-HT1D (Homo sapiens, UniProt P28221); assay: Primary radioligand binding screen; details: primary binding, 5-HT1D; dezocine 10 μM
# T11 construct: expressed in transfected cells
# Description: as §1
# [12] = target: T12, 5-HT3 (Homo sapiens, UniProt P46098); assay: Primary radioligand binding screen; details: primary binding, 5-HT3; dezocine 10 μM
# T12 construct: expressed in transfected cells
# Description: as §1
# [13] = target: T13, D3 (Homo sapiens, UniProt P35462); assay: Primary radioligand binding screen; details: primary binding, D3; dezocine 10 μM
# T13 construct: expressed in transfected cells
# Description: as §1
# [14] = target: T14, Alpha1A (Homo sapiens, UniProt P35348); assay: Primary radioligand binding screen; details: primary binding, Alpha1A; dezocine 10 μM
# T14 construct: expressed in transfected cells
# Description: as §1
# [15] = target: T15, D1 (Homo sapiens, UniProt P21728); assay: Primary radioligand binding screen; details: primary binding, D1; dezocine 10 μM
# T15 construct: expressed in transfected cells
# Description: as §1
# [16] = target: T16, D2 (Homo sapiens, UniProt P14416); assay: Primary radioligand binding screen; details: primary binding, D2; dezocine 10 μM
# T16 construct: expressed in transfected cells
# Description: as §1
# [17] = target: T17, 5-HT6 (Homo sapiens, UniProt P50406); assay: Primary radioligand binding screen; details: primary binding, 5-HT6; dezocine 10 μM
# T17 construct: expressed in transfected cells
# Description: as §1
# [18] = target: T18, H2 (Homo sapiens, UniProt P25021); assay: Primary radioligand binding screen; details: primary binding, H2; dezocine 10 μM
# T18 construct: expressed in transfected cells
# Description: as §1
# [19] = target: T19, 5-HT7 (Homo sapiens, UniProt P34969); assay: Primary radioligand binding screen; details: primary binding, 5-HT7; dezocine 10 μM
# T19 construct: expressed in transfected cells
# Description: as §1
# [20] = target: T20, H3 (Homo sapiens, UniProt Q9Y5N1); assay: Primary radioligand binding screen; details: primary binding, H3; dezocine 10 μM
# T20 construct: expressed in transfected cells
# Description: as §1
# [21] = target: T21, Beta2 (Homo sapiens, UniProt P07550); assay: Primary radioligand binding screen; details: primary binding, Beta2; dezocine 10 μM
# T21 construct: expressed in transfected cells
# Description: as §1
# [22] = target: T22, 5-hT5A (Homo sapiens, UniProt P47898); assay: Primary radioligand binding screen; details: primary binding, 5-hT5A; dezocine 10 μM
# T22 construct: expressed in transfected cells
# Description: as §1
# [23] = target: T23, Beta3 (Homo sapiens, UniProt P13945); assay: Primary radioligand binding screen; details: primary binding, Beta3; dezocine 10 μM
# T23 construct: expressed in transfected cells
# Description: as §1
# [24] = target: T24, Alpha2C (Homo sapiens, UniProt P18825); assay: Primary radioligand binding screen; details: primary binding, Alpha2C; dezocine 10 μM
# T24 construct: expressed in transfected cells
# Description: as §1
# [25] = target: T25, 5-HT1E (Homo sapiens, UniProt P28566); assay: Primary radioligand binding screen; details: primary binding, 5-HT1E; dezocine 10 μM
# T25 construct: expressed in transfected cells
# Description: as §1
# [26] = target: T26, 5-HT2C (Homo sapiens, UniProt P28335); assay: Primary radioligand binding screen; details: primary binding, 5-HT2C; dezocine 10 μM
# T26 construct: expressed in transfected cells
# Description: as §1
# [27] = target: Sigma 1 (Homo sapiens, UniProt Q99720); assay: Primary radioligand binding screen; parameters: expressed in transfected cells; details: primary binding, Sigma 1; dezocine 10 μM
# Description: as §1
# [28] = target: T27, human cloned SERT (Homo sapiens, UniProt P31645); assay: Serotonin reuptake assay in HEK 293 cells; type: cell-based; details: mean±SE
# T27 construct: expressed in transfected cells
# Description: In brief, Human Embryonic Kidney 293 cells were plated in Poly-L-Lys (PLL) coated 384-well black clear bottom cell culture plates in DMEM+1% dFBS, at a density of 15,000 cells per well in a total volume of 40 μl. The cells were incubated for a minimum of 6 hours before use in the assays. The medium was removed and 20 μL of assay buffer (20 mM HEPES, 1×HBSS, pH 7.40) was added, followed by 5 μL of 5× drug solutions. The plate was incubated at 37° C. for 30 min. After the incubation, 25 μL of dye solution was added and fluorescence intensity was measured after […] at 37° C., using FlexStation II (bottom read mode, Excitation at 440 nm, Emission at 520 nm with 510 nm cut-off) from the Molecular Devices. […] The half maximal inhibitory concentration were determined and expressed as pIC50 (pIC50=−log (IC50)).
# [29] = target: kappa opioid receptor (Homo sapiens, UniProt P41145); type: biochemical; parameters: purchased Millipore (Billerica, Mass.); host or cells: Chem-5 mammalian cell line
# Sequence of kappa opioid receptor (P41145 whole entry): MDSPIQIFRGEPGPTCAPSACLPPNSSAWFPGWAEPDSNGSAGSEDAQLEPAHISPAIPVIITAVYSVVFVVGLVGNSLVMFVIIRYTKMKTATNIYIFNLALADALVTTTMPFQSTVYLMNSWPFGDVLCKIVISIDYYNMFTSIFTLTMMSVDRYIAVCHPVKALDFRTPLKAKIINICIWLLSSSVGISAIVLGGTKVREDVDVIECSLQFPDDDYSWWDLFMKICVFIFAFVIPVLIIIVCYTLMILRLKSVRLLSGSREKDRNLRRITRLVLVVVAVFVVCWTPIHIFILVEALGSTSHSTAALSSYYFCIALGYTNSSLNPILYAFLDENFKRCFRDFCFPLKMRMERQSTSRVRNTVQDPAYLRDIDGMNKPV
# Description: Membrane preparations of recombinant human kappa opioid receptor expressed in the mammalian cell line Chem-5 were obtained from Millipore (Billerica, Mass.). The effects of specific kappa opioid receptor ligands on the activation of the recombinant receptor were investigated by measuring G protein activation in vitro.
# The assay reports the initial rates of activation of heterotrimeric G proteins (Gαii1β1γ2) on an agonist-bound receptor by measuring the accumulation of [^35S]-GTPγS (non-hydrolyzable analog of GTP) bound to the activated Gαi1 subunit. […] The G protein activation assay was conducted as follows (final concentrations in 50 μL reaction mixture are given in parentheses): the membrane sample was diluted into ice-cold 10 mM 3-(N-morpholino)propanesulfonic acid (MOPS) buffer to reach a protein concentration of 40 ng/μL. 10 μL of the diluted dispersion were dispensed into pre-siliconized glass tubes and mixed with the ligand in MOPS buffer containing 0.1% (w/v) BSA. Upon addition of a mixture of Gαi1 (100 nM) and Gβ1γ2 (500 nM), the tubes were incubated on ice for 30 minutes. The reaction was started by addition of MOPS buffer pH=7.5 (50 mM), EDTA (1 mM), MgCl2 (3 mM), GDP (4 μM), BSA (0.3% w/v), NaCl (100 mM), DTT (1 mM), and [^35S]-GTPγS (5 nM, 1250 Ci/mmol) followed by rapid transfer of the tubes to a water bath at 30° C. The incubation continued for 45 minutes. The reaction was terminated by addition of 2 mL of ice-cold stop solution, TNMg (20 mM Tris-HCl pH=8.0, 100 mM NaCl, and 25 mM MgCl2). The reaction mixture was rapidly filtered through nitrocellulose filters (Millipore). Filters were washed four times with 2 mL each of cold TNMg buffer, dried, placed in scintillation vials filled with ScintiSafe Econo F scintillation liquid (Fisher, Waltham, Mass.), and the radioactivity counted. Duplicate samples corresponding to every ligand concentration point were counted.
# T1 sequence (P23975 whole entry): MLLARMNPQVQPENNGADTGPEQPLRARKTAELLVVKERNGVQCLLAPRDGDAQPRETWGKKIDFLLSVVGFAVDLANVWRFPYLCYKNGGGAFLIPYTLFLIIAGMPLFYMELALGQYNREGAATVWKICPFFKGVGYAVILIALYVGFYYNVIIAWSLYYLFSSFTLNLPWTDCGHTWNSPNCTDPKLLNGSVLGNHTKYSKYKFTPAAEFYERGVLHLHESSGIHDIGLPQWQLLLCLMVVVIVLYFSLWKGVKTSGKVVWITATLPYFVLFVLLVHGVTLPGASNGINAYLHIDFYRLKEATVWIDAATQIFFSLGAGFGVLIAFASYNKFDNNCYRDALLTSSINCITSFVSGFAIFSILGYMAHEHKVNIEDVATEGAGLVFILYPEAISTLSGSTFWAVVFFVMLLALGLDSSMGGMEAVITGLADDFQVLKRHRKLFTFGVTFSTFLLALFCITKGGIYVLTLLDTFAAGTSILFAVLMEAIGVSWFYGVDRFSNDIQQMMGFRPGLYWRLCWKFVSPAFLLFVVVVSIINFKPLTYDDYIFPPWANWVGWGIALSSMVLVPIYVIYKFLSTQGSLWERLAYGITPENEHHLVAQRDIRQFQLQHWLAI
# T4 sequence (P08908 whole entry): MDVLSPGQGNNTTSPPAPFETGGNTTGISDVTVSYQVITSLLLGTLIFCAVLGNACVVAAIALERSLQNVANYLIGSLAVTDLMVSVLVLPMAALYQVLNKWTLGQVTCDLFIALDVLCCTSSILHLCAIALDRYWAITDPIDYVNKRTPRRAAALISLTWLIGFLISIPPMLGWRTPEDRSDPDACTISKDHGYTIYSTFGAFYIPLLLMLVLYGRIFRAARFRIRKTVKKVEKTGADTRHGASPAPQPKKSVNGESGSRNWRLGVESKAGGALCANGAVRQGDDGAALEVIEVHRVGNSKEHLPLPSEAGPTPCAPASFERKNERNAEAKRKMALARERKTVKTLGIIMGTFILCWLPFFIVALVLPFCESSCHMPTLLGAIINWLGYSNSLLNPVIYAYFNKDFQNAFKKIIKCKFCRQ
# T15 sequence (P21728 whole entry): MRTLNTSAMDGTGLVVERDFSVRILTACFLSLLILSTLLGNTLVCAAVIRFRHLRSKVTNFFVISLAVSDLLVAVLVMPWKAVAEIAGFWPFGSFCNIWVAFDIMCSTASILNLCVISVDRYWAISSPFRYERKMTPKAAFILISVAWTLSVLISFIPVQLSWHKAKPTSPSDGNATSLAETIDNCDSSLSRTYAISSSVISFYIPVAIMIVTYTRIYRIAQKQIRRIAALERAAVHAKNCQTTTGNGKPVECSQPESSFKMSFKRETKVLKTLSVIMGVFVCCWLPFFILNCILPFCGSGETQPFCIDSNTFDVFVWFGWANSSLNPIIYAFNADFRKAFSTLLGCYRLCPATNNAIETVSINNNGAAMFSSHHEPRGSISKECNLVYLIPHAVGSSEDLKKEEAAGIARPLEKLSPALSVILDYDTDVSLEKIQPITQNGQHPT
# T19 sequence (P34969 whole entry): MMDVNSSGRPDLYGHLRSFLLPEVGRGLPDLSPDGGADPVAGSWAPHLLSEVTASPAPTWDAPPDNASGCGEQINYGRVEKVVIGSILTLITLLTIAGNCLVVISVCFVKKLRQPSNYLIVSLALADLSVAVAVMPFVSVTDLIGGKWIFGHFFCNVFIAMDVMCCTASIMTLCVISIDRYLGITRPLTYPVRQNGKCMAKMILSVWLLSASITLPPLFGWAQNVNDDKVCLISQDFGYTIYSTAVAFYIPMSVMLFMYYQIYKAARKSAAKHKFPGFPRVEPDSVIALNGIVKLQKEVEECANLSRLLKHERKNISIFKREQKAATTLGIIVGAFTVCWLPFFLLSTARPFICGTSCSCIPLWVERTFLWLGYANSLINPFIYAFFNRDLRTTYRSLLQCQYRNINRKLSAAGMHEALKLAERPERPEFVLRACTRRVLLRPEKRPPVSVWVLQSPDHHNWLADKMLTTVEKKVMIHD
# T22 sequence (P47898 whole entry): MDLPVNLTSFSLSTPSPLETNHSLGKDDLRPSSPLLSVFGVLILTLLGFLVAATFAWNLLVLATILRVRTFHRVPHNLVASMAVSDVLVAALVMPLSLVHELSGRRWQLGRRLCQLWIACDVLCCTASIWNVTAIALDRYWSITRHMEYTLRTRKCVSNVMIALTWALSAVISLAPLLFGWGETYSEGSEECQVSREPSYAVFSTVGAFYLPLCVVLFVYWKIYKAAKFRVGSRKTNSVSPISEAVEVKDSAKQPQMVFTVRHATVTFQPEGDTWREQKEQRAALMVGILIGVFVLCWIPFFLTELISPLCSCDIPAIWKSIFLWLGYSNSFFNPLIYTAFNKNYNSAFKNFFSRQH
# T9 sequence (P08913 whole entry): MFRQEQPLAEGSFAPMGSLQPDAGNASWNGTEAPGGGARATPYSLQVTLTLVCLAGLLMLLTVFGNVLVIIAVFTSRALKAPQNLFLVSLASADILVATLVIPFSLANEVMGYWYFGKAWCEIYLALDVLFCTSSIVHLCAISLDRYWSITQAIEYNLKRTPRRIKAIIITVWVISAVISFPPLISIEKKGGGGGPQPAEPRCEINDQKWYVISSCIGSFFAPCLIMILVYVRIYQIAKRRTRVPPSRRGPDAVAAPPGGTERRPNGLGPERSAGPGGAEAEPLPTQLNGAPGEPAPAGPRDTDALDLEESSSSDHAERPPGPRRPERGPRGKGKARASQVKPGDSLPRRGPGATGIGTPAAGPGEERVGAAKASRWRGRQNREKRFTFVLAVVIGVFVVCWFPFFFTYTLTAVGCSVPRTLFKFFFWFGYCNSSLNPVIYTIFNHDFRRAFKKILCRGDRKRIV
# T7 sequence (P28222 whole entry): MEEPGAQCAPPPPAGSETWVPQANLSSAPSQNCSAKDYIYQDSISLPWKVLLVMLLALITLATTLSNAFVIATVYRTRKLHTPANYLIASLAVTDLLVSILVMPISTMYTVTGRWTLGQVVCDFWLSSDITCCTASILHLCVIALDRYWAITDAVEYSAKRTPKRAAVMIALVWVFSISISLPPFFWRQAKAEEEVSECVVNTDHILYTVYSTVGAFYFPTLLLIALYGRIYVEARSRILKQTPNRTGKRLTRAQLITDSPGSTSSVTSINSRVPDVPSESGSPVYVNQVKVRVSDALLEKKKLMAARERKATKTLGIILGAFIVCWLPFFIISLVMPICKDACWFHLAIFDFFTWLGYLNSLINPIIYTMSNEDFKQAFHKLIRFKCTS
# T23 sequence (P13945 whole entry): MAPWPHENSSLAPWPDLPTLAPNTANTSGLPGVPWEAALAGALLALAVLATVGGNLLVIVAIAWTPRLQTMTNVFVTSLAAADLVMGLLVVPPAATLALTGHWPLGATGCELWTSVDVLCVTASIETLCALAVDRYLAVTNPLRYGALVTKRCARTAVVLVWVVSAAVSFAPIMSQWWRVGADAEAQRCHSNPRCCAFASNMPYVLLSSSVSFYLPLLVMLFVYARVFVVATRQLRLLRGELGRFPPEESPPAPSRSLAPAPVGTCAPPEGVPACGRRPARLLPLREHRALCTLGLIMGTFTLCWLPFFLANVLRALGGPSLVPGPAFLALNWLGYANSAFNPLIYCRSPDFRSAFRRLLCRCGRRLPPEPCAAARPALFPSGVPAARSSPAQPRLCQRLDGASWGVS
# T2 sequence (P21918 whole entry): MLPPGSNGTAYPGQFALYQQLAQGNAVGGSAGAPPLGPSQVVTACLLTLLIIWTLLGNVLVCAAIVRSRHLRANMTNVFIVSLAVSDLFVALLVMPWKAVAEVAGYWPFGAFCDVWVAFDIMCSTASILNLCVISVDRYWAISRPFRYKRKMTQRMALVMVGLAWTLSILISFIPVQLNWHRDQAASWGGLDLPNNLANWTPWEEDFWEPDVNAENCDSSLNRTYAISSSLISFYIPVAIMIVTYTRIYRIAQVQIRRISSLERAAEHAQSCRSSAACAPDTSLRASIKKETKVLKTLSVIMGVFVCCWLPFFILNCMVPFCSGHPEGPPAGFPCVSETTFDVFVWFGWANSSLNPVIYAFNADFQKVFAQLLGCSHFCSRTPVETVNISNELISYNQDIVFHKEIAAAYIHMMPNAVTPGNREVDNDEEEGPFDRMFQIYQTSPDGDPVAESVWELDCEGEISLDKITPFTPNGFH
# T14 sequence (P35348 whole entry): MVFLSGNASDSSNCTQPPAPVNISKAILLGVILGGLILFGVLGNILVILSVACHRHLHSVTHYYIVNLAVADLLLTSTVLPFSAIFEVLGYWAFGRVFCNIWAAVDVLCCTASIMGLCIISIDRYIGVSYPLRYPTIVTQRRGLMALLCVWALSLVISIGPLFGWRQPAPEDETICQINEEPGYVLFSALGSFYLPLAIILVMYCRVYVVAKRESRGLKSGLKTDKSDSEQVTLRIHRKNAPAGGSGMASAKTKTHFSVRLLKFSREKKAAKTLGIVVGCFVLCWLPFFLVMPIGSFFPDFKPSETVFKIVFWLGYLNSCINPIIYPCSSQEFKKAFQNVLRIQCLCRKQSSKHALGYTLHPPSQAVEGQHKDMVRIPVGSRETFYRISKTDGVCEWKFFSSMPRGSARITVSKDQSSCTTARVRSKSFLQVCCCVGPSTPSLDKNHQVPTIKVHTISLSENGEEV
# T5 sequence (P23975 whole entry): as the sequence (P23975 whole entry) above
smiles,measurement,setting,value
CN1CC[C@]23c4c5ccc(O)c4O[C@H]2[C@@H](O)C=C[C@H]3[C@H]1C5 [Morphine],interaction (binding activity) with NET,[1],No significant binding activity
C=CCN1CC[C@]23c4c5ccc(O)c4O[C@H]2C(=O)CC[C@@]3(O)[C@H]1C5 [Naloxone],interaction (binding activity) with NET,[1],No significant binding activity
same,% inhibition,[2],2.1%
same,% inhibition,[3],−2%
same,% inhibition,[4],5.8%
same,% inhibition,[5],43.8%
same,% inhibition,[6],32.1%
same,% inhibition,[7],−1%
same,% inhibition,[8],−5.8%
same,% inhibition,[9],12.9%
same,% inhibition,[10],49.6%
same,% inhibition,[11],−1.6%
same,% inhibition,[12],0%
same,% inhibition,[13],1.9%
same,% inhibition,[14],4%
same,% inhibition,[15],5.5%
same,% inhibition,[16],−0.8%
same,% inhibition,[17],27.6%
same,% inhibition,[18],57.4%
same,% inhibition,[19],60.3%
same,% inhibition,[20],8.9%
same,% inhibition,[21],−2.6%
same,% inhibition,[22],28.9%
same,% inhibition,[23],−3.1%
same,% inhibition,[24],22.7%
same,% inhibition,[25],−5.7%
same,% inhibition,[26],21.1%
same,% inhibition,[27],9.6%
CNCCC(Oc1ccccc1OC)c1ccccc1 (stereo not drawn) [nisoxetine],pIC50 of SERT (serotonin reuptake),[28],5.99±0.07
Oc1ccc2c3c1O[C@H]1c4[nH]c5c(c4C[C@@]4(O)[C@@H](C2)N(CC2CC2)CC[C@]314)C[C@@]1(O)[C@H]2Cc3ccc(O)c4c3[C@@]1(CCN2CC1CC1)[C@H]5O4 [nor-binaltorphimine],G protein activation in the presence of kappa receptor,[29],inverse kappa agonist; also recorded: did not induce G protein activation
